The assay deals with T1, TOP1cc (Homo sapiens, UniProt P11387).
T1 construct: paired pre-treatment and on-treatment tumor biopsies (C1D2, 2–4 h after dosing) from 6 patients receiving LMP744 at the MTD; from tissue; host or cells: core needle tumor biopsies from patients (LMP744 expansion cohort)
T1 sequence (P11387 2-765 limits assumed): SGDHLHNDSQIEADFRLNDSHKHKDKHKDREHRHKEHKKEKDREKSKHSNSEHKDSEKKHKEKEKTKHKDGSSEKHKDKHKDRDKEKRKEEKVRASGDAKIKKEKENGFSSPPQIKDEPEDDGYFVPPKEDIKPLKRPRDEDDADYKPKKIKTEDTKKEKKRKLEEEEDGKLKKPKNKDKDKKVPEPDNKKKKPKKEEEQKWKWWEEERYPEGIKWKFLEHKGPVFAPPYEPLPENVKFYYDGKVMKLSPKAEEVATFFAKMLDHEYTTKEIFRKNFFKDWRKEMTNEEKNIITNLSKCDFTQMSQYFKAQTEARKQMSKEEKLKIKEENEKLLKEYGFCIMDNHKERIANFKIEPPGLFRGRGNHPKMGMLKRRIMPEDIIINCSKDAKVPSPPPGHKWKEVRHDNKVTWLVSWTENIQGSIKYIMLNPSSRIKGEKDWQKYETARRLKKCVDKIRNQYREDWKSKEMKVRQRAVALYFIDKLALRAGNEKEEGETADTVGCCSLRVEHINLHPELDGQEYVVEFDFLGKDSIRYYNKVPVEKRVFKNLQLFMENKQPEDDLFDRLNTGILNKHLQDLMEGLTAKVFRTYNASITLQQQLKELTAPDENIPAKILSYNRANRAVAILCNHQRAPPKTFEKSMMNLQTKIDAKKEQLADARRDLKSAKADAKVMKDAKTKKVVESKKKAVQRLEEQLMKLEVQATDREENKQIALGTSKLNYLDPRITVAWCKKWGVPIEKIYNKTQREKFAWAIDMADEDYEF
Nature of the assay: qIF of paired tumor biopsies: TOP1cc foci. In kind it is in vivo. The following applies: for TOP1cc: C1D2. The source says: The LMP744 protocol collected pre-treatment (baseline) and on-treatment paired biopsies from patients in the expansion cohort. Core needle tumor biopsies (18-gauge) were collected and flash-frozen at point of collection per NCI SOPs (https://dctd.cancer.gov/ResearchResources/biomarkers/docs/par/SOP340507_Biopsy_Frozen.pdf) as described to preserve labile post-translational modifications such as phosphorylation. Biopsy pairs were thawed in formalin, fixed in paraffin embedded together with control tissues following NCI SOP340550 (https://dctd.cancer.gov/ResearchResources/biomarkers/DDR3/SOP340550_Biopsy_Section_Testis_Jejunum_Controls.pdf). TOP1 and TOP1cc were measured with a cocktail containing custom-conjugated rabbit monoclonal antibody anti-TOP1-DIG (Abcam, EPR5376 (2)) and mouse monoclonal antibody anti-TOP1cc (clone 1.1A [34, 35], EMD Millipore) that were detected with reporter secondary antibodies AlexaFluor-647 IgG fraction monoclonal mouse anti-digoxin (Jackson ImmunoResearch) and goat/anti-mouse AlexaFluor-488, respectively. Phosphorylated KAP1 (pKAP1, phosphorylated at S824) was measured using custom-conjugated pKAP1-pS824-DNP (Abcam, EPR5248) and detected with AlexaFluor-488 conjugated with anti-dinitrophenyl-KLH rabbit IgG Antibody Fraction (DNP-488, ThermoFisher). […] TOP1, γH2AX, pNBS1, and pKAP1 were measured as the percentage of DAPI-stained tumor cell nuclear area that was positive for the biomarker (% NAP); RAD51 [19] and TOP1cc was measured as a function of the percentage of nuclei with ≥ 5 foci (RAD51) or ≥ 19 foci (TOP1cc). Apoptosis was measured using a validated IFA of tumor cells positive for both cCasp3 blebbing in the cytoplasm and γH2AX in the nucleus. Anti-SLFN11 rabbit monoclonal antibody (Cell Signaling Technology, clone D8W1B) was detected by immunohistochemistry (IHC) using Bond Polymer Detection kit (Leica) and scanned in 20X widefield Aperio (Leica), and the distribution of staining intensity of tumor cell nuclei graded as 0, 1 + , 2 + or 3 + was converted into an H-score. […]

We go through one compound from PMC12122562, “Phase 1 studies of the indenoisoquinolines LMP776 and LMP744 in patients with solid tumors and lymphomas” (Cancer Chemotherapy and Pharmacology, 2025).

`COc1cc2c3c(n(CCCNCCO)c(=O)c2cc1OC)-c1cc2c(cc1C3=O)OCO2` [LMP744]: where the note is “6 patients at MTD, P = 0.1373”, the “TOP1cc, change in the biopsy cohort” value is recorded as “no significant changes”. Also, the TOP1cc entry is, setting by setting: (patient 29, MTD) “neither biomarker changed with treatment”; (patient 31, MTD) “decreased nearly to background levels”.
